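In this assay, cells in 96-well plates receive the compound at five concentrations for 48 hours. Endpoints are linearly interpolated between the surrounding concentrations. GI50 = concentration required for 50% inhibition of growth.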 The source made the active and inactive calls. No stated cut-off is given here; in the data, active = GI50 up to about 1.1 µM and inactive = higher.
What was measured:
Test in all cases: NCI tumour cell line growth inhibition, 48 h
SW-620 = test system: SW-620
RPMI-8226 = test system: RPMI-8226
UO-31 = test system: UO-31
SF-539 = test system: SF-539
A549 = test system: A549
IGROV-1 = test system: IGROV-1
LOX IMVI = test system: LOX IMVI
DMS-114 = test system: DMS-114
SF-268 = test system: SF-268
U-251 = test system: U-251
RXF 393 = test system: RXF 393
786-0 = test system: 786-0
SN12C = test system: SN12C
MDA-MB-231 = test system: MDA-MB-231
BT-549 = test system: BT-549
SK-MEL-28 = test system: SK-MEL-28
MDA-MB-435 = test system: MDA-MB-435
HOP-62 = test system: HOP-62
SK-OV-3 = test system: SK-OV-3
NCI-H522 = test system: NCI-H522

SMILES | GI50 (SW-620) | GI50 (RPMI-8226) | GI50 (UO-31) | GI50 (SF-539) | GI50 (A549) | GI50 (IGROV-1) | GI50 (LOX IMVI) | GI50 (DMS-114) | GI50 (SF-268) | GI50 (U-251) | GI50 (RXF 393) | GI50 (786-0) | GI50 (SN12C) | GI50 (MDA-MB-231) | GI50 (BT-549) | GI50 (SK-MEL-28) | GI50 (MDA-MB-435) | GI50 (HOP-62) | GI50 (SK-OV-3) | GI50 (NCI-H522)
O=S1(=O)NN=C(NCc2ccc(Cl)c(Cl)c2)c2ccccc21 | 91.2 µM (inactive) | 11.5 µM (inactive) | > 100 µM (inactive) | > 100 µM (inactive) | > 100 µM (inactive) | > 100 µM (inactive) | 40.2 µM (inactive) | > 100 µM (inactive) | > 100 µM (inactive) | 30.2 µM (inactive) | 19.8 µM (inactive) | > 100 µM (inactive) | > 100 µM (inactive) |  |  |  |  |  |  | 
O=[N+]([O-])c1cc(Br)cc2cc(Cl)cnc12 | 14.5 µM (inactive) | > 100 µM (inactive) | > 100 µM (inactive) | > 100 µM (inactive) | > 100 µM (inactive) | 10.1 µM (inactive) | 82.6 µM (inactive) |  | 89.9 µM (inactive) | > 100 µM (inactive) | 71.8 µM (inactive) | > 100 µM (inactive) | > 100 µM (inactive) | > 100 µM (inactive) | 72.4 µM (inactive) | > 100 µM (inactive) | > 100000 nM (inactive) | > 100 µM (inactive) | 86.9 µM (inactive) | > 100 µM (inactive)
CCN(CC)CCCNc1nnc(C)c2[nH]c3ccccc3c12 | 9.2 µM (inactive) | 23.5 µM (inactive) | 37.2 µM (inactive) | 2.28 µM (inactive) | 17.8 µM (inactive) | 12.1 µM (inactive) | 7.46 µM (inactive) |  | 8.73 µM (inactive) | 13.4 µM (inactive) | 17.7 µM (inactive) | 18.2 µM (inactive) | 12.7 µM (inactive) | 11.4 µM (inactive) | 21.6 µM (inactive) | 18.7 µM (inactive) | 11600 nM (inactive) | 7.31 µM (inactive) | 11 µM (inactive) | 5.7 µM (inactive)
N/C(=N\Nc1ccc(C(=O)O)cc1)c1cnccn1 | > 100 µM (inactive) | > 100 µM (inactive) | > 100 µM (inactive) | > 100 µM (inactive) | > 100 µM (inactive) | > 100 µM (inactive) | > 100 µM (inactive) |  | > 100 µM (inactive) | > 100 µM (inactive) | > 100 µM (inactive) | > 100 µM (inactive) | > 100 µM (inactive) | > 100 µM (inactive) | > 100 µM (inactive) | > 100 µM (inactive) | > 100000 nM (inactive) | > 100 µM (inactive) | > 100 µM (inactive) | > 100 µM (inactive)
S=c1[nH]c(Cl)cc2nc(Cl)cn12 | 6.68 µM (inactive) | 16.1 µM (inactive) | 4.7 µM (inactive) | 2.2 µM (inactive) | 20.2 µM (inactive) | 4.34 µM (inactive) | 7.85 µM (inactive) |  | 5.11 µM (inactive) | 4.53 µM (inactive) | 2.84 µM (inactive) | 3.72 µM (inactive) | 7.29 µM (inactive) | 5.43 µM (inactive) | 9.89 µM (inactive) | 8.2 µM (inactive) | 2090 nM (inactive) | 4.84 µM (inactive) | 2.93 µM (inactive) | 1.57 µM (inactive)
CC(C)(C)c1cc2ccc(C(N)=O)cc2c(=O)[nH]1 | > 100 µM (inactive) |  | 63.8 µM (inactive) | 46.8 µM (inactive) | > 100 µM (inactive) | > 100 µM (inactive) | 62.7 µM (inactive) | > 100 µM (inactive) | > 100 µM (inactive) | 51.3 µM (inactive) | 44.9 µM (inactive) | > 100 µM (inactive) | > 100 µM (inactive) |  |  | > 100 µM (inactive) |  | > 100 µM (inactive) | > 100 µM (inactive) | > 100 µM (inactive)
Nc1ccc2c(c1)nc1n2C(c2c(F)cccc2F)SC1 (stereo not given) | > 100 µM (inactive) | > 100 µM (inactive) | 97.7 µM (inactive) | > 100 µM (inactive) | > 100 µM (inactive) | > 100 µM (inactive) | > 100 µM (inactive) |  | > 100 µM (inactive) | > 100 µM (inactive) | > 100 µM (inactive) | > 100 µM (inactive) | > 100 µM (inactive) | > 100 µM (inactive) | > 100 µM (inactive) | > 100 µM (inactive) | > 100000 nM (inactive) | > 100 µM (inactive) | > 100 µM (inactive) | > 100 µM (inactive)
CCOC(=O)c1c2c(n(C)c1-c1ccccc1)C(=O)C(C)=CC2=O | 4.06 µM (inactive) | 1.9 µM (inactive) | 12.2 µM (inactive) | 4.05 µM (inactive) | 12.2 µM (inactive) | 5.46 µM (inactive) | 3.48 µM (inactive) |  | 8.11 µM (inactive) | 7.8 µM (inactive) | 8.97 µM (inactive) | 15.2 µM (inactive) | 7.69 µM (inactive) | 2.08 µM (inactive) | 13.2 µM (inactive) | 13.9 µM (inactive) | 1910 nM (inactive) | 17.3 µM (inactive) | 16.7 µM (inactive) | 1.69 µM (inactive)
COc1cc(C2c3[nH]c4ccccc4c3[C@@H](Nc3ccc(C#N)cc3)[C@H]3COC(=O)N23)cc(OC)c1O (stereo not given in full) | 0.122 µM (active) | 0.144 µM (active) | 0.802 µM (active) | 0.0618 µM (active) | 0.113 µM (active) | 0.501 µM (active) | 0.0962 µM (active) |  | 0.208 µM (active) | 0.175 µM (active) | 1.16 µM (inactive) | 0.0908 µM (active) | 0.186 µM (active) | 0.372 µM (active) | 0.265 µM (active) | 0.395 µM (active) | 388 nM (active) | 0.192 µM (active) | 0.254 µM (active) | 0.175 µM (active)
O=C1c2cccnc2-c2nccc3c2c1nc1ccc(Br)cc13 | 0.0404 µM (active) | 0.0347 µM (active) | 0.0557 µM (active) | 0.0601 µM (active) | 0.188 µM (active) | 0.038 µM (active) | 0.0221 µM (active) |  | 0.0242 µM (active) | 0.0363 µM (active) | 0.0184 µM (active) | 0.0248 µM (active) | 0.0482 µM (active) | < 0.0201 µM (active) | 0.0337 µM (active) | 0.0252 µM (active) | 88.7 nM (active) | 0.031 µM (active) | 0.145 µM (active) | 0.0528 µM (active)
COc1cccc2c1C(=O)c1c(O)c3c(c(O)c1C2=O)C[C@@](O)(C(=O)CO)C[C@@H]3OC1CC(N2CCOCC2C#N)C(O)C(C)O1 (stereo not given in full) | 7.23e-05 µM (active) | 3.01e-05 µM (active) | 5.52e-05 µM (active) | 2.41e-05 µM (active) | 4.26e-05 µM (active) | 8.57e-05 µM (active) | 0.0025 µM (active) |  | 3.82e-05 µM (active) | 3.01e-05 µM (active) | 1.91e-05 µM (active) | 0.001 µM (active) | 2.14e-05 µM (active) | 0.00011 µM (active) | 5.39e-05 µM (active) | 9.73e-05 µM (active) | 0.074 nM (active) | 2.32e-05 µM (active) | 0.000124 µM (active) | 3.05e-05 µM (active)

— ChEMBL document CHEMBL1201862, “PubChem BioAssay data set” (2004)
